According to patent US20110152267A1, “Compositions and Methods for Treating Hyperproliferative Disorders” (Texas Tech University System, priority 2009, published 2011):

Legend:
[1] = system: CRL-2076 normal human fibroblast cell line; test: DIMSCAN cytotoxicity, fenretinide + L-threo-sphinganines 3:1 (Example B1); assay type: cell-based; settings: CRL-2076, 20% O2, 96 h
Protocol: (§1) Cytotoxicity Assay—Once again, cytotoxicity is determined using the DIMSCAN assay system (R. Proffitt et al., Cytometry 24, 204-213 (1996); T. Frgala et al., Mol Cancer Ther. 6:886-97, 2007). The system employs digital imaging microscopy to quantify viable cells, which selectively accumulate fluorescein diacetate to become brightly fluorescent. The system is capable of measuring cytotoxicity over a 4-5 log dynamic range by quenching the residual fluorescence of dead and dying cells with eosin Y and quantifying the total fluorescence of viable cells using digital thresholding. Measured fluorescence is directly proportionate to the number of viable cells. A comparison of the total fluorescence of a drug-treated cell population to the fluorescence of a similar number of untreated cells yields a survival fraction. In brief, 2000 to 10,000 cells/well (depending on size and growth rates) are replicate plated into 60 wells of a 96-well tissue culture plate in 0.1 mL of whole medium and allowed to attach overnight. Drug(s) are then added in 0.05 mL of whole medium to the final concentrations indicated. Drugs (fenretinide, and various chain length L-threo-sphinganines) were tested both as single agents and in a 3:1 ratio of fenretinide:sphinganine. C18-L-threo-sphinganine, or “safingol,” was also tested and results shown for reference. There are 12 wells treated per drug concentration. Twelve wells receive drug vehicle-only to the appropriate final concentration and serve as controls for the plate. Cells are incubated for 96 hours at 37° C. in ambient air with 5% CO2. Fluorescein diacetate is then added to each well in 0.05 mL media to a final concentration of 8 microgram/mL. Cells are incubated for a further 15 minutes at 37° C. and 0.03 mL of 0.5% eosin Y is added to each well. Total fluorescence of viable cells is then measured by digital imaging microscopy. Results were graphed as the ratio of the fluoresecence of drug-treated wells to non-drug treated control wells (i.e., Survival Fraction). All tests were performed at least twice. Representative results are shown.
(§2) The Combination Index (CI) is a term to describe mathematical modeling of the pharmacologic effects on cytotoxicity (cell death) of two drugs in combination based. Cytotoxic “synergy” is defined as a cell death affect which is greater than would be expected from a simple product of the single agent cytotoxicities alone (i.e. an “additive” effect). By Chou-Talalay analysis, a CI<0.9 on a Fraction Affected (“Fa”, i.e. fraction of cells killed) indicates synergy, with smaller numbers indicating greater synergy; a CI of 0.9-1.1 signifies an additive or near-additive effect; and a CI>1.1 means the drug combination is antagonistic.
(§3) Fenretinide and L-threo-sphinganines tested in normal human fibroblast (normal skin cell) cell lines, CRL-2091 and CRL-2076.

[2] = system: CRL-2091 normal human fibroblast cell line; test: as above; assay type: cell-based; settings: CRL-2091, 20% O2, 96 h
Protocol: as §1, §2, §3

[3] = system: MOLT-4 ALL leukemia cell line; test: DIMSCAN cytotoxicity dose-response with fenretinide, with or without D-threo-PPMP (Examples A, FIGS. 6, 24-26); assay type: cell-based, human; settings: +96 hrs
Protocol: Cytotoxicity Assay: Cytotoxicity in cell lines was determined using a fluorescence-based assay employing digital imaging microscopy (DIMSCAN)(after Fragala, et al, Mol Cancer Ther, 6:886-897, 2007). DIMSCAN quantitates viable cells which selectively accumulate fluorescein diacetate and is capable of measuring cytotoxicity over a 4-5 log dynamic range by quantifying total fluorescence per well (which is proportional to viable, clonogenic cells) after eliminating background fluorescence using digital thresholding and eosin Y quenching. Briefly, cell lines were seeded into 96-well plates in 100 µL of complete culture medium (10-20% serum) per well. Cells were incubated overnight in 2%, 5% or 20% oxygen (room air) prior to addition of drugs in […] volumes of complete medium to various final drug concentrations in replicates of 12 wells per concentration. In assays employing D-threo-PPMP, PPMP was employed at a fixed, minimally-toxic, final concentration of 10 μM in each well. Control wells received ethanol (final concentration=0.12%-0.20%) in complete medium equivalent to the maximum final ethanol concentration of drug-treated wells. Plates were incubated at various oxygen concentrations to simulate physiological hypoxia (i.e., 2% oxygen=typical solid tumor oxygen levels; 5%=bone marrow oxygen levels for leukemias; 20% room air=supraphysiological oxygen for comparison with typical laboratory culture conditions). Plates were assayed at 3-4 days after initiating drug exposure depending on the growth properties of each cell line, to allow for maximum cell death and outgrowth of surviving cells. To measure cytotoxicity, FDA (stock solution of 1 mg/ml in DMSO) was added, in 50 µL of complete medium per well, to a final concentration of 10 µg/ml. The plates were incubated for an additional 15-30 minutes at 37 C and then 30 µL of eosin Y (0.5% in normal saline) was added per well. Total fluorescence of each well was then measured using digital imaging microscopy.
FIGS. 1 to 26 illustrate the effect (Examples A1 through A26) of the claimed invention and were carried out using the procedures disclosed herein.

[4] = system: MOLT-4 acute lymphoblastic leukemia cell line; test: DIMSCAN cytotoxicity, fenretinide + L-threo-sphinganines 3:1 (Example B20); assay type: cell-based, human
Protocol: as §1, §2
(§4) Fenretinide and L-threo-sphinganines tested in human acute lymphoblastic leukemia (pediatric ALL, a blood cancer) cell lines, COG-LL-317 and MOLT-4.

[5] = system: COG-LL-317 acute lymphoblastic leukemia cell line; test: as above; assay type: cell-based, human
Protocol: as §1, §2, §4

[6] = system: LNCaP prostate adenocarcinoma cell line; test: DIMSCAN cytotoxicity, fenretinide + L-threo-sphinganines 3:1 (Example B16); assay type: cell-based, human; settings: LNCaP.FGC
Protocol: as §1, §2
Fenretinide and L-threo-sphinganines tested in human prostate adenocarcinoma (prostate cancer) cell line, LNCaP.

[7] = 4-HPR 1.5 μM + L-threo-sphinganine 0.5 μM
[8] = 4-HPR 3 μM + L-threo-sphinganine 1 μM
[9] = 4-HPR 6 μM + L-threo-sphinganine 2 μM
[10] = 4-HPR 9 μM + L-threo-sphinganine 3 μM
[11] = 4-HPR 12 μM + L-threo-sphinganine 4 μM

SMILES: CCCCCCCCCCCCCC[C@H](O)[C@@H](N)CO [C17, (2S,3S)-2-amino-1,3-heptadecanediol]
- CI (Combination Index) [1, 7]: >1
- Fa (fraction affected) [1, 7]: 0.05
- CI (Combination Index) [1, 8]: >1
- Fa (fraction affected) [1, 8]: 0.04
- CI (Combination Index) [1, 9]: >1
- Fa (fraction affected) [1, 9]: 0.09
- CI (Combination Index) [1, 10]: >1
- Fa (fraction affected) [1, 10]: 0.15
- CI (Combination Index) [2, 7]: >1
- Fa (fraction affected) [2, 7]: 0.13
- CI (Combination Index) [2, 8]: >1
- Fa (fraction affected) [2, 8]: 0.25
- CI (Combination Index) [2, 9]: >1
- Fa (fraction affected) [2, 9]: 0.13
- CI (Combination Index) [2, 10]: >1
- Fa (fraction affected) [2, 10]: 0.62
- C.I. of D-threo-PPMP with fenretinide+L-threo-sphinganine (three drug combination) ([3]; 2% oxygen, D-threo-PPMP fixed 10 uM, at most doses): < 1
- C.I. (Combination Index) with fenretinide ([3]; at one or more doses): < 1
- CI [4, 8]: 1.0
- Fa [4, 8]: 0.807
- CI [4, 9]: 0.7
- Fa [4, 9]: 0.998
- CI [4, 10]: 0.8
- Fa [4, 10]: 0.999
- Fa [4, 11]: 1
- CI [5, 8]: 0.8
- Fa [5, 8]: 0.993
- CI [5, 9]: 1.3
- Fa [5, 9]: 0.9993
- CI [5, 10]: 0.5
- Fa [5, 10]: 0.9999
- Fa [5, 11]: 1
- CI [6, 7]: 0.3
- Fa [6, 7]: 0.887
- CI [6, 8]: 0.3
- Fa [6, 8]: 0.967
- CI [6, 9]: 0.2
- Fa [6, 9]: 0.991
- CI [6, 10]: 0.1
- Fa [6, 10]: 0.999
